The values below come from US5464861A, “2-thioindoles (selenoindoles) and related disulfides (selenides) which inhibit protein tyrosine kinases and which have antitumor properties” (Warner-Lambert, priority 1993, dated 1995).

Assay [1] concerns the target T1, epidermal growth factor receptor tyrosine kinase (Homo sapiens, UniProt P00533).
T1 construct: A native 170,000 epidermal growth factor receptor-kinase complex from shed plasma membrane vesicles; endogenous in cells
The assay can be described thus: EGF receptor tyrosine kinase assay (P^32 incorporation in GAT). It counts as biochemical. Conditions: for IC50: Table 2, EGRF-R, IC50 entries, read-out: IC50 (EGFR TK); for inhibition at 100 µM: EGRF-R, read-out: % Inhibition at 100 μM (EGFR TK). The procedure, abridged: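 Receptor pre-activated with 150 ng EGF for 10 min at room temperature. ATP with or without compound then added and incubated 10 min at room temperature.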

Assay [2] concerns the target T2, human PDGF β receptor intracellular tyrosine kinase domain (Homo sapiens, UniProt P09619).
T2 construct: human PDGF β receptor intracellular tyrosine kinase domain; made in house; host or cells: SF9 insect cells, recombinant baculovirus; cell lysates used
The assay can be described thus: PDGF receptor tyrosine kinase inhibition assay (P^32 incorporation in Glu-Tyr). It is filed as biochemical. Conditions: for inhibition at 100 µM: read-out: % Inhibition at 100 μM (PDGFR TK).
Procedure: Recombinant baculovirus containing human PDGF β receptor intracellular tyrosine kinase domain was used to infect SF9 cells to overexpress the protein, and cell lysates were used for the assay. The ability of the tyrosine kinase to phosphorylate glutamate tyrosine substrate in the presence of P^32 -ATP and inhibitor was measured by counting the incorporation of P^32 in Glu-Tyr in TCAprecipitable material.

Assay [3] has as its system Swiss 3T3 mouse fibroblasts. The assay can be described thus: Growth inhibition assay, Swiss 3T3 fibroblasts. It is filed as cell-based.
Procedure: Swiss 3T3 mouse fibroblasts were maintained in dMEM/F12 media containing 10% fetal calf serum. […] The cells were grown at 37° C. under 5% CO2 for 72 hours and then counted by Coulter counter. The data were expressed as the concentration of inhibitor necessary to decrease the growth rate by 50%.
Assay [4] deals with human epidermoid carcinoma A431 cells. Conditions: J. Antibiot. 1986;39:170; cited from earlier work.
Assay [5] has as its system human mammary carcinoma MCF-7 and some esophageal tumors. Conditions: nude mice, dose-dependent; cited from earlier work.
In the next assay the test system is Swiss 3T3 fibroblasts. The assay can be described thus: Growth factor mediated mitogenesis (tritiated thymidine incorporation). It counts as cell-based. The note with it: Mus musculus, Swiss-3T3, 24 h. How it is done:
Swiss 3T3 fibroblasts, that were growth arrested in serum-free media for 24 hours, were exposed to various concentrations of compound for 2 hours. The cells were then exposed to individual growth factors for 24 hours and mitogenesis assessed by measuring tritiated thymidine incorporation into DNA.
The concentration of 21 and 70 required to inhibit growth factor mediated mitogenesis by 50% for the following growth factors was as follows: […]
On the technique in general: Dividing cells build labelled thymidine or BrdU into new DNA.

The test system of a further assay is MDA 468 breast. The assay can be described thus: Growth inhibition assay, MDA 468. It is filed as cell-based. The note with it: Homo sapiens, read-out: IC50 cell growth inhibition.
The next assay relates to A431 epidermoid. The assay can be described thus: Growth inhibition assay, A431. It is filed as cell-based. The note with it: Homo sapiens, A-431, read-out: IC50 cell growth inhibition.
Another assay concerns A549 lung. The assay can be described thus: Growth inhibition assay, A549. It counts as cell-based. Conditions: Homo sapiens, read-out: IC50 cell growth inhibition.
Another assay concerns MDV-7 breast. The assay can be described thus: Growth inhibition assay, MDV-7. The note with it: Homo sapiens, read-out: IC50 cell growth inhibition. It is filed as cell-based.
The subject of another assay is MDA-231 breast. The assay can be described thus: Growth inhibition assay, MDA-231. It counts as cell-based. Conditions: Homo sapiens, MDA-MB-231, read-out: IC50 cell growth inhibition.
A further assay concerns HT-29 colon. The assay can be described thus: Growth inhibition assay, HT-29. It counts as cell-based. The note with it: Homo sapiens, read-out: IC50 cell growth inhibition.
In assay [6] the test system is EGF mediated phosphorylation of a variety of endogenous proteins. The assay can be described thus: EGF mediated tyrosine phosphorylation, Western blot. It is filed as cell-based, mouse. Also noted: dose or concentration left out as unconfirmed. The note with it: Swiss 3T3. The method, then: (§1) Swiss 3T3 fibroblasts, that were growth arrested in serum-free media for 24 hours, were exposed to various concentrations of compound for 2 hours. The cells were then exposed to individual growth factors for 5 minutes and proteins that were phosphorylated on tyrosine in response to the mitogens and were detected by Western blotting techniques using phosphotryosine antibodies. Similar techniques were used for tumor cell lines except the time in serum-free media was increased.
In general terms: In western blotting, separated proteins are transferred to a membrane and probed.

In assay [7] the test system is PDGF mediated autophosphorylation of the PDGF receptor and tyrosine phosphorylation of other endogenous proteins. The assay can be described thus: PDGF mediated tyrosine phosphorylation, Western blot. The note with it: Swiss 3T3. It is filed as cell-based, mouse. The arrangement: dose or concentration left out as unconfirmed. How it is done:
as §1

For assay [8], the system named is bFGF mediated tyrosine phosphorylation. The assay can be described thus: bFGF mediated tyrosine phosphorylation, Western blot. It is filed as cell-based, mouse. The method, then: as §1
Assay [9] deals with human tumor cell lines as well as the Swiss 3T3 fibroblasts. The assay can be described thus: Growth inhibition of a variety of human tumor cell lines. It counts as cell-based, human; mouse. The method, then:
Swiss 3T3 mouse fibroblasts were maintained in dMEM/F12 media containing 10% fetal calf serum. Two mL of cells at a density of 1×10^4/mL were placed in 24-well plates plus or minus various concentrations of the inhibitor. The cells were grown at 37° C. under 5% CO2 for 72 hours and then counted by Coulter counter. The data were expressed as the concentration of inhibitor necessary to decrease the growth rate by 50%.

Setting [10] is: Swiss-3T3, 72 h, read-out: IC50 growth inhibition.
Setting [11] is: Swiss 3T3, 72 hours, Table 2, read-out: IC50 growth inhibition.

Where two headings read alike, the source gives them in different places.

T1 sequence (P00533 25-1210): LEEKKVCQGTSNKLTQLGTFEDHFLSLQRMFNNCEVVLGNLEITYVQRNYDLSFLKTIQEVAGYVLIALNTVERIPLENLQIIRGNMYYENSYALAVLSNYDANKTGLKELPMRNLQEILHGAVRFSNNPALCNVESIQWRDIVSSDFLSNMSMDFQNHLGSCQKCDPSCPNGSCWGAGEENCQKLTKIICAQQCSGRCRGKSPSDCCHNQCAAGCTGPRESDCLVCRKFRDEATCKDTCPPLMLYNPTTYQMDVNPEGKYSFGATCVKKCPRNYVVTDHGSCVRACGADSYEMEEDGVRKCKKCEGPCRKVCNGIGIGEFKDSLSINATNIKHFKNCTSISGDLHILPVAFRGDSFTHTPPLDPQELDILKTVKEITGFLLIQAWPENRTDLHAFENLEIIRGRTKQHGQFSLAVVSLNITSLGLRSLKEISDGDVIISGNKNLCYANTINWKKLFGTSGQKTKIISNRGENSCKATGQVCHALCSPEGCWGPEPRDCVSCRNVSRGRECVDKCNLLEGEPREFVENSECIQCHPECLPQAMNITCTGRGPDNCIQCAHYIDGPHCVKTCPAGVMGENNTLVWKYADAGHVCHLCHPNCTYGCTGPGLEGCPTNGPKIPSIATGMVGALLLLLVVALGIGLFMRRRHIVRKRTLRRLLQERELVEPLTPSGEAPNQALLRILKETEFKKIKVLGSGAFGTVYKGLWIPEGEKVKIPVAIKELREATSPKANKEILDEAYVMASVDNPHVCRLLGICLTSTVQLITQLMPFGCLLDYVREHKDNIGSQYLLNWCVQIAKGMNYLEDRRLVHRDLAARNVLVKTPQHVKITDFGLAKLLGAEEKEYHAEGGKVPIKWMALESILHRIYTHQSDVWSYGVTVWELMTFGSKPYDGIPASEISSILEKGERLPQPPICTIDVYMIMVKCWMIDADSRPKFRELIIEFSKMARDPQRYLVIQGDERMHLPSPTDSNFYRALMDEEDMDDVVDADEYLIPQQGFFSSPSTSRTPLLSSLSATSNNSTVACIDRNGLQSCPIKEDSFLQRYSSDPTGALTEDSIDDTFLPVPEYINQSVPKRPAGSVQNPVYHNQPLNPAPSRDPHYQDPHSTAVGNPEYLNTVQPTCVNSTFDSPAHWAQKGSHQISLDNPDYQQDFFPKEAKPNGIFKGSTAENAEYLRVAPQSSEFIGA
T1 sequence (P01133 971-1023 partner limits assumed): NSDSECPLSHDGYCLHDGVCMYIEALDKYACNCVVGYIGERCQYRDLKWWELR
T2 sequence (P09619 554-1106 limits assumed): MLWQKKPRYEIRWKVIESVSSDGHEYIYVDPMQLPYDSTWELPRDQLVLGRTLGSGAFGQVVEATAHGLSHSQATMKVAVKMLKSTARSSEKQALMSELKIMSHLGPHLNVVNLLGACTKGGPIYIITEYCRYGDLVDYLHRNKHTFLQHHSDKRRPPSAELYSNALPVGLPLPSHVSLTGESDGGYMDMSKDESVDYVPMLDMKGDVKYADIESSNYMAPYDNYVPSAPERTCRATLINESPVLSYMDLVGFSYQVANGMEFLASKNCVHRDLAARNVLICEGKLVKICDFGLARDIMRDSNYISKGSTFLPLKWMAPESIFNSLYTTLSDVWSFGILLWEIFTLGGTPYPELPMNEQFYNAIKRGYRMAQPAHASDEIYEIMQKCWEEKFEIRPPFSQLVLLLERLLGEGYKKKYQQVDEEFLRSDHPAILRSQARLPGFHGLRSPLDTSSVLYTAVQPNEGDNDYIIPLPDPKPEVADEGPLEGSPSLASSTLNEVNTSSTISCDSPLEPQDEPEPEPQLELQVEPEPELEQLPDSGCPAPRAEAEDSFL

In the case of `NC(Cc1c(SSc2[nH]c3ccccc3c2CC(N)C(=O)NCc2ccccc2)[nH]c2ccccc12)C(=O)NCc1ccccc1` (racemic) [Compound 62, 2,2'-dithiobis[α-amino-N-benzyl-3-(3-indolyl)propanamide]], the IC50 came out at 6 µM in [1] and 5.3 µM in [3] (setting [10]). Also, the inhibition at 100 µM in assay [2] (at 100 μM, PDGF-R) is 71%.

For the compound `CN(C)CCNC(=O)c1c(SSc2c(C(=O)NCCN(C)C)c3ccccc3n2C)n(C)c2ccccc12` [Compound 115, 2,2'-dithiobis [N-(N,N-dimethylaminoethyl) 1-methylindolyl-3-carboxamide]], the IC50 in assay [1] was 26 µM; in assay [2] (Table 2, PDGF-R, IC50 entries, read-out: IC50 (PDGFR TK)) it was 19.7 µM; in assay [3] (setting [11]), above 50 µM.

In the case of `CCOC(=O)Cc1c(SSc2c(CC(=O)OCC)c3ccccc3n2C)n(C)c2ccccc12` [Compound 33, bis[ethyl 1-methylindolyl-3-acetate-(2)]disulfide], the IC50 in assay [1] is 39 µM; in [3] (setting [10]) it was 3 µM. Besides, the inhibition at 100 µM in assay [2] (at 100 μM, PDGF-R) was 16.7%.

Turning to `Cn1c(SSc2c(CC(=O)O)c3ccccc3n2C)c(CC(=O)O)c2ccccc21` [Compound 32, bis[1-methylindolyl-3-acetic acid-(2)]-disulfide], the results for the IC50 in assay [1] and in assay [3] (setting [11]) were 34.5 µM and 36 µM, respectively. The inhibition at 100 µM in [2] (at 100 μM, PDGF-R) stood at 4.7%.

For the compound `Cn1c(SSc2c(C(=O)Nc3ccccc3)c3cccnc3n2C)c(C(=O)Nc2ccccc2)c2cccnc21` [Compound 83, 2,2'-dithiobis [N-phenyl-1-methyl-7-azaindolyl-3-carboxamide]], the results for the IC50 in [1] and in assay [3] (setting [11]) were 22.3 µM and 10 µM, respectively. Besides, the inhibition at 100 µM in assay [2] (at 100 μM, PDGF-R) was found to be 57%.

For `CCn1c(SSc2c(C(=O)Nc3ccccc3)c3ccccc3n2CC)c(C(=O)Nc2ccccc2)c2ccccc21` [Compound 71, bis[N-phenyl 1-ethylindolyl-3-carboxamide-(2)]disulfide], the inhibition at 100 µM in [1] came out at 20%; in assay [2], 5%. Further, the IC50 in assay [3] (setting [10]) was 52 µM.

Take `CCOC(=O)CCc1c(SSc2[nH]c3cc(C)ccc3c2CCC(=O)OCC)[nH]c2cc(C)ccc12` [Compound 44, bis[ethyl 6-methylindolyl-3-propanoate-(2)] disulfide]: the inhibition at 100 µM in assay [1] amounted to 16.6%; in [2] (at 100 μM, PDGF-R), 5%. In assay [3] (setting [11]), the IC50 amounted to 2.4 µM.

`COc1ccc2c(C(=O)Nc3ccccc3)c(SSc3c(C(=O)Nc4ccccc4)c4ccc(OC)cc4n3C)n(C)c2c1` [Compound 81, bis[N-phenyl 6-methoxy-1-methylindolyl-3-carboxamide-(2)]disulfide]: the IC50 worked out at 3.6 µM in assay [1] and 17 µM in assay [3] (setting [11]). In assay [2] (at 100 μM, PDGF-R), the inhibition at 100 µM was 2%.

As to `O=CN/C=C/c1cc(O)ccc1O` [erbstatin], the “IC50 growth of A431 cells” value in assay [4] was 3.6 µg/mL. In addition, the tumor growth inhibition entry in [5] is given as “inhibits the growth”.

As to `COc1cccc2c1c(C(=O)Nc1ccccc1)c(SSc1c(C(=O)Nc3ccccc3)c3c(OC)cccc3n1C)n2C` [Compound 79, bis [N-phenyl 4-methoxy-1-methyl indolyl-3-carboxamide-(2)]disulfide], the inhibition at 100 µM in assay [1] was found to be 11%; in assay [2] (at 100 μM, PDGF-R), 20%. Further, the IC50 in assay [3] (setting [11]) was determined as 1.9 µM.

As to `Cc1ccc2c(c1)c(C(=O)Nc1ccccc1)c(SSc1c(C(=O)Nc3ccccc3)c3cc(C)ccc3n1C)n2C` [Compound 76, bis [N-phenyl 1,5-dimethylindolyl-3-carboxamide-(2)] disulfide], the inhibition at 100 µM in assay [1] came to 7%; in [2] (at 100 μM, PDGF-R), 19%. Also, in [3] (setting [11]), the IC50 came out at 22 µM.

Regarding `Cc1cccc2c1c(C(=O)Nc1ccccc1)c(SSc1c(C(=O)Nc3ccccc3)c3c(C)cccc3n1C)n2C` [Compound 75, bis[N-phenyl 1,4-dimethylindolyl-3-carboxamide-(2)]disulfide], the inhibition at 100 µM turned out to be 6% in assay [1] and 3% in [2] (at 100 μM, PDGF-R). Also, the IC50 in assay [3] (setting [11]) turned out to be 4 µM.

As to `Cn1c(SSc2c(C(=O)NCc3ccccc3)c3ccccc3n2C)c(C(=O)NCc2ccccc2)c2ccccc21` [Compound 98, bis[N-benzyl 1-methylindolyl-3-carboxamide-(2)]disulfide], the IC50 in [1] was 1.5 µM; in assay [3] (setting [11]), 5 to 12 µM. The inhibition at 100 µM in assay [2] (at 100 μM, PDGF-R) is 9%.

For `Cn1c(SSc2c(C(=O)Nc3ccccc3)c3cc(Cl)ccc3n2C)c(C(=O)Nc2ccccc2)c2cc(Cl)ccc21` [Compound 73, bis[N-phenyl 5-chloro-1-methylindolyl-3-carboxamide-(2)]disulfide], the results for the IC50 in [1] and in assay [3] (setting [11]) were 4.3 µM and 9.3 µM, respectively. In assay [2] (at 100 μM, PDGF-R), the inhibition at 100 µM stood at 21%.

In the case of `Cc1ccc(S(=O)(=O)c2c(SSc3[nH]c4ccccc4c3S(=O)(=O)c3ccc(C)cc3)[nH]c3ccccc23)cc1` [Compound 99, bis[3-(4-methylphenylsulfonyl)-2-indolyl]disulfide], the IC50 in [1] was found to be 40 µM; in assay [3] (setting [10]) it was 2.8 µM. Further, the inhibition at 100 µM in [2] (at 100 μM, PDGF-R) turned out to be 19%.

On to `CN1C(=S)C(C(=O)Nc2ccccc2)c2ccccc21` (stereo not drawn) [Compound 21, N-phenyl (1-methyl-2-thioxo-3-indolinyl)carboxamide], for which the IC50 in assay [1] worked out at 1 µM; in assay [3] (setting [11]) it was 64 µM; in assay [3] (Swiss 3T3 fibroblasts, cell line table, read-out: IC50 cell growth inhibition), 64 µM; with Swiss 3T3 fibroblasts (EGF) it was 2 µM; in the assay with Swiss 3T3 fibroblasts (PDGF), 8 µM; in the assay on Swiss 3T3 fibroblasts (bFGF) it was 13 µM. In addition, the IC50 with Swiss 3T3 fibroblasts (serum) came to 19 µM; with MDA 468 breast it was 43 µM; in the assay on A431 epidermoid, 62 µM; in the assay on A549 lung, 30 µM; in the assay with MDV-7 breast, 39 µM; with MDA-231 breast, 15 µM. For the same compound, the IC50 in the assay on HT-29 colon stood at 55 µM. Moreover, in [6], the “suppression of EGF mediated phosphorylation of a variety of endogenous proteins” value is “suppressed”. Further, the “suppression of PDGF mediated autophosphorylation of the PDGF receptor and tyrosine phosphorylation of other endogenous proteins” value in assay [7] is given as “suppressed”. In assay [8] (Swiss 3T3, 10 to 50 mM), the “suppression of bFGF mediated tyrosine phosphorylation” value is “suppressed”. The “growth inhibition in words” value in assay [9] was “growth inhibitory”.

For the compound `Cn1c(SSc2c(C(=O)Nc3ccccc3)c3ccccc3n2C)c(C(=O)Nc2ccccc2)c2ccccc21` [Compound 70, bis [N-phenyl 1-methylindolyl-3-carboxamide-(2)] disulfide], the half-maximal inhibitory concentration (IC50) worked out at 8.6 µM in assay [1]; 12 µM in [3] (setting [11]); 3 µM in the assay on Swiss 3T3 fibroblasts (EGF); 4 µM in the assay with Swiss 3T3 fibroblasts (PDGF); 3 µM in the assay on Swiss 3T3 fibroblasts (bFGF); 3 µM in the assay on Swiss 3T3 fibroblasts (serum). The inhibition at 100 µM in assay [2] (at 100 μM, PDGF-R) is 1%. In [8] (Swiss 3T3, as low as 2 mM), the “inhibition of bFGF mediated tyrosine phosphorylation (selectivity over EGF and PDGF)” value is “more selective and inhibited only bFGF mediated tyrosine phosphorylation”.

As usually defined, the IC50 is the concentration needed to halve the response being measured. Usually inhibition stands for the relative decrease from the control value, in per cent.
